Measurements taken from EP0118838A2, “New cephem compounds processes for preparation thereof and pharmaceutical compositions containing them” (FUJISAWA PHARMACEUTICAL CO., LTD., priority 1983, dated 1984).

Assays:
[1] = tested on: Proteus mirabilis 18; experiment: In vitro antibacterial activity, two-fold agar-plate dilution method; assay type: cell-based; details: HI-agar, incubation at 37°C for 20 hours, inoculum 10^8 viable cells per ml
Experimental: (§1) In vitro antibacterial activity was determined by the two-fold agar-plate dilution method as described below. One loopful of an overnight culture of each test strain in Trypticase-soy broth (10^8 viable cells per ml.) was streaked on heart infusion agar (HI-agar) containing graded concentrations of test compound , and minimal inhibitory concentration (MIC) was expressed in terms of µg/ml after incubation at 37°C for 20 hours.

[2] = tested on: Proteus vulgaris 2; experiment: as above; assay type: cell-based; details: HI-agar, incubation at 37°C for 20 hours, inoculum 10^8 viable cells per ml
Experimental: as §1

MIC [1]: < 0.025 µg/mL
MIC [2]: < 0.025 µg/mL
Compound: Nc1nc(/C(=N/OCC(=O)O)C(=O)NC2C(=O)N3C(C(=O)O)=C(CSc4snc(O)c4C(=O)O)CSC23)ns1 (stereo not drawn) [Test Compound, Sodium 7-[2-(5-amino-1,2,4-thiadiazol-3-yl)-2-carboxymethoxyiminoacetamido]-3-[(4-carboxy-3-hydroxyisothiazol-5-yl)thiomethyl]-3-cephem-4-carboxylate (syn isomer)]
